Source: patent publication US20190008879A1 (priority 2017, published 2019)

Key:
PI3K/Akt pathway = conditions: cited from earlier work
[1] = test system: mammary tumor cell line MCF-7; test: In vitro antitumor activity on MCF-7, noted by the inventor; assay type: cell-based, human; conditions: MCF-7 strain
periampullary cancer = test: Preventive consumption of phytin by the patient before the diagnosis; assay type: in vivo, human; conditions: 1.4 g/day phytin solubilized in citric acid, oral, for 5 years before diagnosis
Source text: Before their admission to emergency department, the patient consumed, on a regular basis, with a view to prevention and for 5 years as an oral food supplement, 1.4 g/day of phytin solubilized in citric acid.

[2] = test system: invasive ductal breast cancer; conditions: 6 g/d in addition to chemotherapy, six months, 14 patients; cited from earlier work

For `O=P(O)(O)O[C@@H]1[C@@H](OP(=O)(O)O)[C@H](OP(=O)(O)O)[C@H](O)[C@H](OP(=O)(O)O)[C@H]1OP(=O)(O)O` [myo-inositol 1,3,4,5,6 pentakis phosphate], the “antitumor activity compared with phytin” value (PI3K/Akt pathway) is given as “higher than that of phytin” and the anti-angiogenic action (PI3K/Akt pathway; concentration of 50 μM) is given as “anti-angiogenic action by inhibiting the PI3K/Akt pathway”.

With `O[C@H]1[C@H](O)[C@@H](O)[C@H](O)[C@@H](O)[C@H]1O` [myo-inositol] the “in vitro antitumor action” value [1] was “no in vitro antitumor action”.

In the case of phytin, the “antitumor activity in human in the absence of magnesium chloride” value (periampullary cancer) is given as “does not have antitumor activity in human”, the “cytopenia (leucocyte and platelet quantitative deficiency)” value [2] is given as “preserved from cytopenia” and the tumor progression [2] is given as “no impact on tumor progression”.
